Calls of active or inactive are those of the source. The calls are words filed in the database; no cut-off is given here.
Assays:
Homo sapiens = species on record: Homo sapiens; experiment: Selectivity index, ratio of IC50 for N-terminal GST-tagged human recombinant wild type EGFR (695 to end residues) expressed in baculovirus-infected Sf9 cells to IC50 for N-terminal GST-tagged human recombinant EGFR T790M/L858R mutant (695 to end residues) expressed in baculovirus-infected Sf9 cells; assay type: functional
ASPC1 = experiment: Antiproliferative activity against human ASPC1 cells harboring KRAS G12D mutant assessed as reduction in cell growth incubated for 72 hrs by MTT assay; assay type: functional, cell-based; settings: ASPC1, 72 h
[1] = Cytotoxicity against human L02 cells assessed as reduction in cell viability incubated for 72 hrs by MTT assay; assay type: toxicity, cell-based
NCI-H1975 [2] = experiment: Antiproliferative activity against human NCI-H1975 cells harboring EGFR T790M/L858R mutant assessed as reduction in cell growth incubated for 72 hrs by MTT assay; assay type: functional, cell-based; settings: NCI-H1975, 72 h
[3] = target: Epidermal growth factor receptor (Homo sapiens, UniProt P00533); experiment: Inhibition of N-terminal GST-tagged human recombinant wild type EGFR (695 to end residues) expressed in baculovirus-infected Sf9 cells using poly (4:1 Glu,Tyr) peptide as substrate incubated for 60 mins in presence of ATP by ADP-Glo kinase assay
Epidermal growth factor receptor (Homo sapiens, UniProt P00533), sequence (P00533 whole entry): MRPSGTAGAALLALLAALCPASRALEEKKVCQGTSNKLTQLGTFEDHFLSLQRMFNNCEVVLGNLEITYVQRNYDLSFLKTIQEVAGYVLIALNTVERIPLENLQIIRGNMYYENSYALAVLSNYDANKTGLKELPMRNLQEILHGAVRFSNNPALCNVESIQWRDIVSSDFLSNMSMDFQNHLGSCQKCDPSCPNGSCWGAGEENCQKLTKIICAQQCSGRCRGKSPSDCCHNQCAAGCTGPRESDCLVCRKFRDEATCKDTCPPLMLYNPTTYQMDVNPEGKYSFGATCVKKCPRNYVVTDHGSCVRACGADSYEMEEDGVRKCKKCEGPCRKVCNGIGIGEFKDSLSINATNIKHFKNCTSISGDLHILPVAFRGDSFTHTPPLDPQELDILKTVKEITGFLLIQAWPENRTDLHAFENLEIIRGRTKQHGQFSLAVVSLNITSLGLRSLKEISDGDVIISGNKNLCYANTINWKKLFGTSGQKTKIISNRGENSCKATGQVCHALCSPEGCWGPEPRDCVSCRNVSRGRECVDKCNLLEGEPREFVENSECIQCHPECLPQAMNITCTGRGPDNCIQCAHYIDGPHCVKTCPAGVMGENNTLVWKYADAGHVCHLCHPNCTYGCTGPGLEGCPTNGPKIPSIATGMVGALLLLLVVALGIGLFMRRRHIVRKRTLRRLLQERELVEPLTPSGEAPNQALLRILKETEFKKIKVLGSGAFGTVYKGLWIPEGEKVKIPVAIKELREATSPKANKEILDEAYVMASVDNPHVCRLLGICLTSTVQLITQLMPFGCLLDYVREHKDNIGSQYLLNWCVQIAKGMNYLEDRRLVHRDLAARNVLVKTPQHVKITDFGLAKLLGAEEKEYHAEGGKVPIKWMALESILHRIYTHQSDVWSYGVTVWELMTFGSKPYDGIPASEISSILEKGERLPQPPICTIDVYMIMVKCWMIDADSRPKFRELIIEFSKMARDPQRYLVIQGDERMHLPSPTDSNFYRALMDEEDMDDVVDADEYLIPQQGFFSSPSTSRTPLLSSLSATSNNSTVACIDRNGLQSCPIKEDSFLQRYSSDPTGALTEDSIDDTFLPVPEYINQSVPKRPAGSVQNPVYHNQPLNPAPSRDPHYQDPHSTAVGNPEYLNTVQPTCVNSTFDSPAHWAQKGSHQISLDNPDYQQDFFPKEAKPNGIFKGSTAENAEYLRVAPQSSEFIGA

[4] = target: Epidermal growth factor receptor (Homo sapiens, UniProt P00533, L858R/T790M); experiment: Inhibition of N-terminal GST-tagged human recombinant EGFR T790M/L858R mutant (695 to end residues) expressed in baculovirus-infected Sf9 cells using poly (4:1 Glu,Tyr) peptide as substrate incubated for 60 mins in presence of ATP by ADP-Glo kinase assay
Epidermal growth factor receptor (Homo sapiens, UniProt P00533, L858R/T790M), sequence (P00533 25-1210 T790M/L858R limits assumed): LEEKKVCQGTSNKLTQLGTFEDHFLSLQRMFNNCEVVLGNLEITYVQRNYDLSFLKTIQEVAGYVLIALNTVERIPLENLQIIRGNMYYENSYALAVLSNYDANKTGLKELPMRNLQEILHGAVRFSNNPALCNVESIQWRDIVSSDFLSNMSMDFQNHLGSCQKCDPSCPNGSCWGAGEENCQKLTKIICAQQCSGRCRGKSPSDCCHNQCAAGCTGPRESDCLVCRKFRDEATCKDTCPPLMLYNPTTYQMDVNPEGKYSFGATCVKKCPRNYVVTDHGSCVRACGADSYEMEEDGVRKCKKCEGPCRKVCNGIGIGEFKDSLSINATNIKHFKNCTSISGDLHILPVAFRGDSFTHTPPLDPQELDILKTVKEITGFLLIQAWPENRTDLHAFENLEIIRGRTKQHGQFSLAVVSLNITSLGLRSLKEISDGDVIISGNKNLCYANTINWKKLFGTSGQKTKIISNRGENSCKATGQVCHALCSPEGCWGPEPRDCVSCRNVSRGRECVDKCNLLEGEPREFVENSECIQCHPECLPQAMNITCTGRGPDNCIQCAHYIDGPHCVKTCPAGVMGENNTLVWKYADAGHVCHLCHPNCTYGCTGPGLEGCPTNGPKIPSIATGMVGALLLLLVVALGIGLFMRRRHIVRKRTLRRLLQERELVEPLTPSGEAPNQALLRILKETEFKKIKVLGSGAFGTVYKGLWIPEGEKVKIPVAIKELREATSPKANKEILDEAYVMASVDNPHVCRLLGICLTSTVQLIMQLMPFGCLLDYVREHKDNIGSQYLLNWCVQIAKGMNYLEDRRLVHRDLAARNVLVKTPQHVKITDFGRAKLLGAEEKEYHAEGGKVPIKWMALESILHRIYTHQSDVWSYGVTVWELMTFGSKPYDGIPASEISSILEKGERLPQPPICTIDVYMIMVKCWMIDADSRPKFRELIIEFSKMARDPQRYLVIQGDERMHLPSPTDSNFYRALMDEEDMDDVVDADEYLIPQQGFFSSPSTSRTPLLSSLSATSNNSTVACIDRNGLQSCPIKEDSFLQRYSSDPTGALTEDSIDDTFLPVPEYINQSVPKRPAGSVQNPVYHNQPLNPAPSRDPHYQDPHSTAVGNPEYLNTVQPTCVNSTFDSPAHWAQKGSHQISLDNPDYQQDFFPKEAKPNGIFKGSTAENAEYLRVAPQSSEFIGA

[5] = Cytotoxicity against human A-431 cells harboring wild type EGFR assessed as reduction in cell viability incubated for 72 hrs by MTT assay; assay type: toxicity, cell-based
NCI-H358 = experiment: Antiproliferative activity against human NCI-H358 cells harboring KRAS G12C mutant assessed as reduction in cell growth incubated for 72 hrs by MTT assay; assay type: functional, cell-based; settings: NCI-H358, 72 h
SW-620 = experiment: Antiproliferative activity against human SW620 cells harboring KRAS G12V mutant assessed as reduction in cell growth incubated for 72 hrs by MTT assay; assay type: functional, cell-based; settings: SW-620, 72 h
[6] = Cytotoxicity against human HBE cells assessed as reduction in cell viability incubated for 72 hrs by MTT assay; assay type: toxicity, cell-based, Epithelial cell
NCI-H1975 [7] = experiment: Induction of morphological changes in human NCI-H1975 cells incubated for 48 hrs by AO/EB staining based fluorescence microscopic analysis; assay type: functional, cell-based; settings: dose 1-10 µM, DDE = dose-dependent effect
NCI-H1975 [8] = experiment: Inhibition of cell migration in human NCI-H1975 cells incubated for 24 to 48 hrs by scratch wound healing assay; assay type: functional, cell-based; settings: dose 0.05-0.5 µM, time 24-48 hrs, DDE = dose-dependent effect
NCI-H1975 [9] = experiment: Induction of apoptosis in human NCI-H1975 cells assessed as increase in number of nonviable apoptotic cells at 5 to 10 uM incubated for 48 hrs by AO/EB staining based fluorescence microscopic analysis; assay type: functional, cell-based; settings: dose 5-10 µM
NCI-H1975 [10] = experiment: Inhibition of cell migration in human NCI-H1975 cells at 0.05 to 0.5 uM by scratch wound healing assay; assay type: functional, cell-based; settings: dose 0.05-0.5 µM, time 24-48 hrs, TDE = time-dependent effect
[11] = Selectivity index, ratio of IC50 for cytotoxicity against human HBE cells to IC50 for cytotoxicity against human NCI-H1975 cells harboring EGFR T790M/L858R mutant; assay type: toxicity, cell-based; settings: read-out: Ratio IC50
NCI-H1975 [12] = experiment: Induction of apoptosis in human NCI-H1975 cells assessed as chromatin shrinkage and accumulation in the nucleus at 1 to 10 uM incubated for 48 hrs by DAPI staining based fluorescence microscopic analysis; assay type: functional, cell-based; settings: dose 1-10 µM
NCI-H1975 [13] = experiment: Induction of apoptosis in human NCI-H1975 cells assessed as nuclear fragmentation by measuring breakdown of nucleus into small membrane blebs with compacted DNA at 1 to 10 uM incubated for 48 hrs by DAPI staining based fluorescence microscopic analysis; assay type: functional, cell-based; settings: dose 1-10 µM
[14] = Selectivity index, ratio of IC50 for cytotoxicity against human L02 cells to IC50 for cytotoxicity against human NCI-H1975 cells harboring EGFR T790M/L858R mutant; assay type: toxicity, cell-based; settings: read-out: Ratio IC50
NCI-H1975 [15] = experiment: Induction of apoptosis in human NCI-H1975 cells assessed as increase in died cells with few cells containing intact DNA at 10 uM incubated for 48 hrs by DAPI staining based fluorescence microscopic analysis; assay type: functional, cell-based

Row | SMILES | Ratio IC50 (Homo sapiens) | IC50 (ASPC1) [µM] | IC50 at 72 h [1] [µM] | IC50 (NCI-H1975 [2]) [µM] | IC50 [3] [µM] | IC50 [4] [µM] | IC50 at 72 h [5] [µM] | IC50 (NCI-H358) [µM] | IC50 (SW-620) [µM] | IC50 at 72 h [6] [µM] | Activity (NCI-H1975 [7]) | inhibition (NCI-H1975 [8]) | Activity (NCI-H1975 [9]) | inhibition (NCI-H1975 [10]) | selectivity ratio [11] | Activity (NCI-H1975 [12]) | Activity (NCI-H1975 [13]) | selectivity ratio [14] | Activity (NCI-H1975 [15])
1 | C=CC(=O)N1CCC(Oc2nc(Nc3cnn(C)c3)nc3ccsc23)CC1 | 1.45 | 0.71 | 8.92 | 2.31 | 0.196 | 0.135 | 4.77 | 17.6 | 6.2 | > 20 | – | – | – | – | – | – | – | – | –
2 | C=CC(=O)N1CCC(Oc2nc(Nc3cnn(C)c3)nc3[nH]ccc23)CC1 | 1.9 | 1.15 | 10.2 | 0.93 | 0.387 | 0.204 | 3.99 | 3.07 | 2.36 | > 20 | – | – | – | – | – | – | – | – | –
3 | C=CC(=O)N1CCC(Oc2nc(Nc3ccc(N4CCN(CCO)CC4)cc3)ncc2Cl)CC1 | 2.94 | 2.74 | 4.47 | 1.53 | 0.124 | 0.0421 | 2.01 | 4.66 | 0.3 | 16.1 | – | – | – | – | – | – | – | – | –
4 | C=CC(=O)N1CCC(Oc2nc(Nc3ccc(N4CCN(C)CC4)c(F)c3)nc3ccsc23)CC1 | – | > 20 | 1.4 | 1.89 | – | – | 1.38 | 6.26 | 3.57 | 4.05 | – | – | – | – | – | – | – | – | –
5 | C=CC(=O)N1CCC(Oc2nc(Nc3ccc(N4CCN(C)CC4)cc3OC)nc3ccsc23)CC1 | 17.4 | 0.65 | 1.97 | 1.67 | 0.247 | 0.0142 | 2.07 | 7.4 | 7.33 | 18.6 | – | – | – | – | – | – | – | – | –
6 | C=CC(=O)Nc1cc(Nc2nccc(-c3cn(C)c4ccccc34)n2)c(OC)cc1N(C)CCN(C)C [OSIMERTINIB] | – | – | – | – | – | – | 1.32 | – | – | – | – | – | – | – | – | – | – | – | –
7 | C=CC(=O)N1CCC(Oc2nc(Nc3ccc(N4CCN(C)CC4)cc3)nc3ccsc23)CC1 | 73.3 | 5.31 | 8.45 | 0.62 | 0.359 | 0.0049 | 4.18 | 18.9 | 7.45 | 9.05 | Dde | Dde | Active | Tde | 13 | Active | Active | 13 | Active
8 | C=CC(=O)N1CCC(Oc2nc(Nc3ccc(N4CCOCC4)cc3)nc3ccsc23)CC1 | 30.2 | 2.77 | 16.2 | 5.8 | 0.197 | 0.00653 | 3.89 | 16.5 | 4.82 | 16.7 | – | – | – | – | – | – | – | – | –
9 | C=CC(=O)N1CCC(Oc2nc(Nc3ccc(N4CCN(C)CC4)cc3)ncc2Cl)CC1 | – | 5.84 | 8.77 | 1.7 | – | – | 1.45 | 3.96 | 4.63 | 15 | – | – | – | – | – | – | – | – | –
10 | C=CC(=O)N1CCC(Oc2nc(Nc3ccc(N4CCN(C(C)=O)CC4)cc3OC)nc3ccsc23)CC1 | 3 | 0.48 | 10.6 | 3.74 | 0.0607 | 0.0202 | 3.92 | 14.6 | 8.61 | 18.9 | – | – | – | – | – | – | – | – | –
11 | C=CC(=O)N1CCC(Oc2nc(Nc3ccc(N(C)CCN(C)C)cc3OC)nc3[nH]ccc23)CC1 | 7.7 | 5.13 | 19 | 4.14 | 0.0593 | 0.0077 | 16.7 | 5.62 | 7.84 | > 20 | – | – | – | – | – | – | – | – | –
12 | C=CC(=O)N1CCC(Oc2nc(Nc3ccc(N4CCN(C(C)=O)CC4)cc3OC)nc3[nH]ccc23)CC1 | 4.23 | 4.92 | 16.1 | 3.78 | 0.133 | 0.0313 | 3.51 | 3.56 | 5.8 | 12.9 | – | – | – | – | – | – | – | – | –
13 | C=CC(=O)N1CCC(Oc2nc(Nc3ccc(N4CCN(C)CC4)c(F)c3)ncc2Cl)CC1 | – | 3.88 | 5.38 | 2.09 | – | – | 3.26 | 1.51 | 1.64 | 8.91 | – | – | – | – | – | – | – | – | –
14 | CCC(=O)N1CCC(Oc2nc(Nc3ccc(N4CCN(C)CC4)cc3)nc3ccsc23)CC1 | – | – | – | 26.1 | 0.268 | 0.356 | – | – | – | – | – | – | – | – | – | – | – | – | –
15 | C=CC(=O)N1CCC(Oc2nc(Nc3ccc(N4CCN(C)CC4)cc3)nc3[nH]ccc23)CC1 | 6.35 | 1.21 | 6.25 | 1.72 | 0.0361 | 0.00568 | 1.65 | 4.22 | 2.47 | 7.94 | – | – | – | – | – | – | – | – | –
16 | C=CC(=O)N1CCC(Oc2nc(Nc3ccn(C)n3)nc3ccsc23)CC1 | 1.78 | < 0.2 | 16.7 | 16.7 | 0.224 | 0.126 | > 20 | 20 | > 20 | > 20 | – | – | – | – | – | – | – | – | –
17 | C=CC(=O)N1CCC(Oc2nc(Nc3ccc(N4CCN(C)CC4)c(F)c3)nc3[nH]ccc23)CC1 | 8.87 | 0.4 | 1.89 | 0.89 | 0.119 | 0.0134 | 1.29 | 3.62 | 1.6 | 3.02 | – | – | – | – | – | – | – | – | –
18 | C=CC(=O)N1CCC(Oc2nc(Nc3ccc(CN4CCC(CO)CC4)cc3)ncc2Cl)CC1 | 14.6 | 2.18 | 2.12 | 1.07 | 0.18 | 0.0123 | 1.84 | 16 | 1.99 | 5.86 | – | – | – | – | – | – | – | – | –
19 | C=CC(=O)N1CCC(Oc2nc(Nc3ccc(N4CCOCC4)cc3OC)nc3ccsc23)CC1 | 25.5 | 0.51 | 18.2 | 5.87 | 0.246 | 0.00966 | 15.2 | > 20 | 8.67 | > 20 | – | – | – | – | – | – | – | – | –
20 | C=CC(=O)N1CCC(Oc2nc(Nc3ccc(N4CCN(C)CC4)cc3OC)nc3[nH]ccc23)CC1 | 2.99 | 7.04 | 18 | 4.36 | 0.0368 | 0.0123 | 2.71 | 9.86 | 9.88 | > 20 | – | – | – | – | – | – | – | – | –
